Laboratory results: patent US12097380B2, “Shielding of magnetic field as a medical therapy” (Micromed Scientia, Inc., priority 2012, dated 2024)

Key:
[1] = system: non-small cell lung cancer cells A549; assay: In vitro growth of A549 cells in the presence of Taxol, iron shielding box vs plastic box (CCK-8 cell viability); type: cell-based, human
Protocol: (§1) The surrounding magnetic field shielding device and the plastic box used in this experiment were the same as those described in Example 2 above.
The human non-small cell lung cancer cells (A549) and human breast cancer cell (MCF-7) were supplied by the Cell Resource Center, Shanghai Institute of Life Sciences. The cells were maintained in a monolayer and were grown at 37° C. in an atmosphere of 5% CO2 with moisture in RPMI 1640 medium, supplemented with 10% fetal bovine serum. The medium also contained […] Penicillin and 100 mg/L Streptomycin. The cells at exponentially growing phase were used in the experiments.
(§2) The human non-small cell lung cancer cells (A549) or the human breast cancer cells (MCF-7) were grown in 96 well plates. The growth of non-small cell lung cancer cell line and the breast cancer cell line were investigated while being exposed to environmental magnetic field or being shielded from environmental magnetic field. Each cell culture was separated into three equal portions. The first sample was cultured in a surrounding magnetic field shielded box (an iron shielding box). The second sample was cultured in a plastic box, and the third sample was cultured in the absence of any surrounding box as a control. All of the samples were placed in the incubator with an atmosphere containing 5% CO2 and at a temperature of 37° C. The cell growth rates were examined periodically by harvesting the cells and determining cell viability using the cell counting kit-8 and microplate reader RT-6000. The experiments were continued for four to seven days depending on the cell types and the respective growth rates.
(§3) Cell count kit-8 (CCK-8) ([…] manufactured by Dojindo Molecular Technologies, Inc.) allows sensitive colorimetric assays for the determination of cell viability. […]

[2] = system: most sensitive non-small lung cancer cell; details: as reported by Georgiadis et al. 1997, read-out: IC50 to Taxol; cited from earlier work
[3] = system: Taxol-resistant non-small cell lung cancer cells A549-T24; assay: In vitro growth of Taxol-resistant A549-T24 cells in the presence of Taxol, iron shielding box vs plastic box (CCK-8 cell viability); type: cell-based, human; details: for growth of A549-T24 in the iron shielding box slower than the control cultured in a plastic box: 12 nM Taxol in medium, 37° C., shielded vs unshielded
From the text: as §1
The protocol described by Kavallaris et al., J. Clin. Invest., 100(5): 1282-1293 (1997)^[13] was followed to culture taxol-resistant human lung carcinoma cells A549. The human non-small cell lung cancer cells A549 were maintained in RPMI 1640 containing 10% FBS and 1% Penicillin-Streptomycin. For inducing its resistance to Taxol, in a stepwise manner, Taxol was added into the culture medium with periodically increasing its concentration. A549 cells were initially exposed to 3 nM of Taxol, and once normal growth was achieved, cells were maintained at this concentration. In two weeks, the Taxol dose was increased by two-fold, such as 3 nM, 6 nM, 12 nM, until the final drug concentration of 24 nM was achieved to develop Taxol-resistant cells. The obtained cells were maintained at a Taxol concentration of 24 nM. These Taxol-resistant cells were named as A549-T24.
as §2, with “The experiments were continued for four to seven days depending on the cell types and the respective growth rates.” left out
as §3

CC(=O)O[C@H]1C(=O)[C@@]2(C)[C@H]([C@H](OC(=O)c3ccccc3)[C@]3(O)C[C@H](OC(=O)[C@H](O)[C@@H](NC(=O)c4ccccc4)c4ccccc4)C(C)=C1C3(C)C)[C@]1(OC(C)=O)CO[C@@H]1C[C@@H]2O [Taxol, Paclitaxel]
growth of A549 in the iron shielding box slower than the control cultured in a plastic box ([1]; 5 nM Taxol in medium, 37° C., 3 days of incubation, shielded vs unshielded, P<0.001): 16.3% | growth of A549 in the iron shielding box decreased in comparison to the control cultured in a plastic box ([1]; 5 nM Taxol in medium, 37° C., 5 days of incubation, shielded vs unshielded, P<0.0005): 47.3% | IC50 ([1]; Homo sapiens, 120 h, A549, under shielding of environmental magnetic field, 5 days, read-out: IC50 of Taxol (drug concentration at which cell growth is suppressed to 50%)): ~5 nM | IC50 [2]: 9.9 nM | growth of A549-T24 in the iron shielding box slower than the control cultured in a plastic box ([3]; day 3, P<0.01): 11.2% | growth of A549-T24 in the iron shielding box slower than the control cultured in a plastic box ([3]; day 4, P<0.001): 10.7% | IC50 ([3]; Homo sapiens, 96 h, A549-T24, under shielding of surrounding magnetic field, day 4): ~10 nM
